“Also recorded” adds a separate entry of the source. Positions of bridges follow the written chain, without caps; N, C: chain ends. Non-standard residues stand in square brackets, D forms with d. Residues, ends and D or L forms follow the SMILES beside them. Dab = NCC[C@H](N)C(=O)O
Columns and labels:
[1] = test system: Jurkat (clone E6-1) cells; assay: ATP cell viability (cytotoxicity) assay, CellTiter-Glo 2.0; assay type: cell-based, human
Description: Potential cytotoxicity of Lei-Dab7 was assessed by an ATP detection assay. Jurkat (clone E6-1) cells were used as they express KCNN2 channels constitutively and have been used to assess the cytotoxicity of compounds that block KCNN2.[37]^,[38] After recovery from cryopreservation, cells were plated into V-bottom, 96-well plates (2 × 10^4 cells per well), and the compound (Lei-Dab7) or control (negative control: media alone or 10% PBS in media; positive control: approximately 1% sodium dodecyl sulfate in media) was added into the culture media. After incubation for 24 hours, cells were assessed for viability using a CellTiter-Glo 2.0 kit (Promega, WI). Briefly, CellTiter-Glo 2.0 reagent was thawed and warmed to approximately 22°C, then mixed by gentle inversion. Once thoroughly mixed, 100 μL of reagent was distributed into each well, and the plates were gently mixed for approximately 2 minutes on an orbital shaker for cell lysis. The plates were then incubated for approximately10 minutes at room temperature to stabilize the luminescent signal. The amount of light produced from each well was quantified using a Cytation 5 plate reader (BioTek, VT). Cell viability was calculated as a percentage of the mean of the negative control […] for each well. […]

[2] = Physiological monitoring (PhysioSuite) after intranasal administration; assay type: in vivo, mouse (CD-1)
Description: Lei-Dab7 or biotinylated Lei-Dab7 (Smartox Biotechnology, France) was dissolved in PBS and administered to mice intranasally at 3.0 μg/kg/day. Vehicle (PBS) only was administered as the control. Briefly, the mouse was held softly on the neck to avoid any movement during drug administration. A 20-μL pipette was used to deliver 3 to 5 μL drug at a time. The tip was placed close enough to the mouse’s nostril at a 45-degree angle, and the drug was slowly ejected into the nostril. The mouse was let to inhale for 3 to 5 seconds and then left in a cage for 5 minutes to fully inhale the drug. This process was repeated until the required amount of drug was administered in a few minutes. The alternate nostril was used to deliver the drug each time to increase the efficiency of administration. Successful delivery by this method was confirmed by detecting biotinylated Lei-Dab7 in the brain, which was collected and immersion-fixed with 4% PFA at 15 minutes after intranasal administration using ABC (Thermo Fisher Scientific, NY) and TSA (PerkinElmer, MA) kits. For the analysis on the effect of treatment, Lei-Dab7 was administered daily throughout the reversal learning test phase of the water T-maze test. Physiological monitoring was recorded at 30 minutes and 24 hours post administration by using PhysioSuite (Kent Scientific, CT).
Supplementary Figure 4. […] Pulse oximetry, heart rate, and body temperature were recorded at 30 minutes and 24 hours post administration of vehicle control (30 minutes only) or Lei-Dab7 (30 minutes, 24 hours). Siblings from the same mother were used as the control for the Lei-Dab7 treatment. […] Data are presented in box plots. The line within the box indicates the median, and the upper and lower edges of the box represent the 25th and 75th percentiles, respectively. The upper and lower whisker boundaries indicate the 10th and 90th percentiles, respectively, and dots indicate outliers.

[3] = test system: rat; set-up: method as in 2 sources, one per row (each row's own in cited_ref): ref 82 = [82]; PMID 15985330; doi:10.1016/j.neulet.2005.05.050; 82. Deschaux O , Bizot JC . Apamin produces selective improvements of learning in rats . Neurosci Lett. 2005; 386 : 5 – 8 . 10.1016/j.neulet.2005.05.050 15985330 ||| ref 26, 82, 83 = [26]; PMID 18561910; doi:10.1016/j.ejphar.2008.05.019; 26. Mpari B , Sreng L , Regaya I , Mourre C . Small-conductance Ca(2+)-activated K(+) channels: heterogeneous affinity in rat brain structures and cognitive modulation by specific blockers . Eur J Pha || [82]; PMID 15985330; doi:10.1016/j.neulet.2005.05.050; 82. Deschaux O , Bizot JC . Apamin produces selective improvements of learning in rats . Neurosci Lett. 2005; 386 : 5 – 8 . 10.1016/j.neulet.2005.05.050 15985330 || [83]; PMID 9148239; doi:10.1016/s0304-3940(97)13367-5; 83. Deschaux O , Bizot JC , Goyffon M . Apamin improves learning in an object recognition task in rats . Neurosci Lett. 1997; 222 : 159 – 162 . 10.1016/s0304-3940(97)13367-5 9148239; conditions: cited from earlier work
[4] = P40, 30 minutes and 24 hours post administration, one-way ANOVA, n = 6 animals from 3 litters per group

Compound: CC[C@H](C)[C@@H]1NC(=O)[C@@H]2CSSC[C@H](NC(=O)[C@H](Cc3ccccc3)NC(=O)[C@H](C)N)C(=O)N[C@@H](CC(N)=O)C(=O)N[C@@H](CC(C)C)C(=O)N[C@@H](CCCNC(=N)N)C(=O)N[C@@H](CCN)C(=O)N[C@H]3CSSC[C@H](NC(=O)[C@H](CCCCN)NC(=O)[C@H](CC(=O)O)NC(=O)CNC1=O)C(=O)N[C@@H](CCC(=O)O)C(=O)N[C@H](C(=O)N[C@H](C(=O)N[C@@H](CCCCN)C(=O)N[C@@H](Cc1c[nH]cn1)C(N)=O)C(C)C)CSSC[C@H](NC(=O)[C@H](CO)NC(=O)[C@H](CC(C)C)NC(=O)[C@H](CCC(N)=O)NC3=O)C(=O)N[C@@H](CCCNC(=N)N)C(=O)N[C@@H](CO)C(=O)N[C@@H](CC(C)C)C(=O)NCC(=O)N[C@@H](CC(C)C)C(=O)N[C@@H](CC(C)C)C(=O)NCC(=O)N[C@@H](CCCCN)C(=O)N2 [Lei-Dab7, Leiurotoxin-1 Dab7] (H-AFCNLR[Dab]CQLSCRSLGLLGKCIGDKCECVKH-NH2; disulfide 3-21, 8-26, 12-28)
- cytotoxicity ([1]; 24-hour culture, ATP cell viability assay, even as high as at 100 μM): did not show any cytotoxicity
- cytotoxicity (summary wording) ([1]; in vitro, abstract/introduction wording): negligible cytotoxicity; also recorded: no detectable cytotoxicity
- toxicity, 3 primary physiological measures ([2]; 3.0 μg/kg intranasal, pulse oximetry, heart rate, body temperature, 30 minutes or 24 hours post administration): without apparent acute physiological adverse effects; also recorded: No severe toxicity
- body temperature vs vehicle [2, 4]: no statistically significant differences
- heart rate vs vehicle [2, 4]: no statistically significant differences
- pulse oximetry vs vehicle [2, 4]: no statistically significant differences
- adverse effects in control animals ([2]; intranasal, control animals (Figs. 5, S4)): no apparent adverse effects in control animals
- negative effects on learning in rats [3]: no negative effects

From article PMC12418948, “Intranasal Administration of KCNN2 Blocking Peptide Improves Deficits in Cognitive Flexibility in Mouse Model of Fetal Alcohol Spectrum Disorders” (International Journal of Neuropsychopharmacology, 2025)
